Measurements: patent US10785978B2, “Control and repellency of biting flies, house flies, ticks, ants, fleas, biting midges, cockroaches, spiders and stink bugs” (priority 2012, dated 2020)

Tests used:
Format in all cases: in vivo
[1] = system: brown marmorated stink bugs (BMSB); experiment: Brown marmorated stink bug repellency, treated vs. untreated filter paper arena
Method: The two semi-circle filter papers were aligned together to completely cover the bottom of the test arena. Control arenas were also set up in a similar fashion except both were treated with acetone. Five replicates of 5 BMSB were then introduced into both the treated and control arenas. By releasing them in the center of the arena, the BMSB were presented with a choice of treated vs. untreated substrate (or untreated vs. untreated in the control arenas). The repellency of the BMSB was recorded at 24 hours post-treatment.

Pharaoh ants = experiment: Pharaoh ant behaviour at treated-untreated interface on poster board; settings: 50% in acetone; 5 minutes after release
Method: Pharaoh ants were tested using the following protocol. The side of a 17″×23″ rectangular sheet of poster board was sprayed with the test sample or acetone, except for a region within a 6″ circle. The treated poster board was allowed to dry. Five worker ants were placed in the center of the 6″ untreated circle and allowed to wander outside the circle onto the treated surface. The behavior of the ants at the treated-untreated interface was recorded for 5 minutes after release. Test compounds were diluted in acetone.

stable flies = experiment: Stable fly probing on treated warmed blood-filled membranes; settings: for Probes at 7% test compound: 7% in isopropyl alcohol on membrane; for Probes at 7% test compound / Probes at 15% test compound: twenty minutes, percent of control probes taken as 100%; for Probes at 15% test compound: 15% in isopropyl alcohol on membrane; for repellency compared with DEET: at the same concentrations (7% and 15%)
Method: Five replicates of 100 mixed-sex stable flies each were placed in screened cages. The cages were placed in such a way that the stable flies had access to five warmed, blood-filled membrane walls. The membranes were treated with methyl dihydrojasmonate, gamma-dodecalactone, methyl apritone, or DEET® all at 7% and at 15% in isopropyl alcohol, or isopropyl alcohol as a control. There were five replicates tested with a positional rotation of the repellent at each replicate. Fresh batches of stable flies were used for each replicate. Thus each test sample was tested on each of the five wells, which allowed any positional bias to be eliminated. The number of stable flies probing each well was recorded at two minute intervals for twenty minutes. The total number of probes on each well were tallied at the end of the twenty minute observation period and the average percentage repellency was calculated for each compound. An analysis of variance was conducted to compare the average number of probes on each treatment membrane. The number of probes for the control was taken as the 100% baseline and the percentage for the test compounds is the percent for the number of probes for the test compound compared to the number of control probes.

[2] = system: Brown Dog Ticks, Rhipicephalus sanguineus; experiment: Brown Dog tick repellency on vertical filter paper strips; settings: for ticks repelled: concentration not given
Method: Control against Brown Dog ticks was determined in the following protocol. Strips of filter paper, 1″ by 3″, were placed on a sheet of aluminum foil treated with 1 ml each of the test samples and allowed to dry. The end of each treated strip was stapled to an untreated filter paper strip of the same dimensions. The stapled strips were suspended in a vertical position above a tray, with the treated half attached to a horizontal glass rod by a metal clip. The untreated half was lowered when the strip is vertically positioned. Brown Dog Ticks, Rhipicephalus sanguineus, mixed sexes, were purchased from a supplier. Five replicates of five ticks for each treatment regimen plus five additional replicates for the control were employed. Ticks shipped to the test site were given at least one day to acclimate to “shipping stress” before they are used for testing. Those tick specimens which appeared sluggish or moribund were not used. Suitable ticks were removed from their containers and allowed to quest on the free end of the test strip. Once present on the strip they were watched as they crawled up the strip until they contacted the treated paper. If the tick, once in contact with the treated zone, either turned around, stopped without proceeding further, or dropped off, the tick is classified as repelled. If it continued to crawl onto the treated strip, even after it stopped briefly, that tick was classified as not repelled. A maximum observation time of 1 minute per replicate was allowed for ticks to respond after reaching the treated area, but during the test, if more time was needed, the maximum observation time may have been adjusted at the discretion of the study coordinator. At the end of the observation time, the number of ticks repelled was recorded. Tick behavior was recorded when applicable, such as whether increased number of affected or repelled ticks occurred in successive replicates over time. After the completion of each treatment parameter, the testing chamber was ventilated for five minutes by turning on the exhaust fan and opening the door leading into the chamber. Ticks were used only once. Average number of ticks displaying each behavior category were calculated and compared to the control replicates.

Structure (SMILES) | % Repellency at 24 hours ([1]; 2.5% in isopropyl alcohol) | % Repellency at 24 hours ([1]; 5% in isopropyl alcohol) | % crossed without stopping (Pharaoh ants) | % slowed, but crossed (Pharaoh ants) | % stopped at interface (Pharaoh ants) | Probes at 7% test compound (stable flies) | Probes at 15% test compound (stable flies) | repellency compared with DEET (stable flies) | Mean % repelled ([2]; Neat) | ticks repelled [2] | Mean % repelled ([2]; 7.5% in isopropyl alcohol)
CCCCCC1C(=O)CCC1CC(=O)OC (stereo not shown) [Methyl dihydrojasmonate, methyl dihydrojasmonate] | 74% | 100% | 50% | 20% | 32% | 4.5% | 3.2% | repelled better than DEET® | 100% | 100% | –
CCC(C)=CCCC(C)=CCC1CCCC1=O (stereo not shown) [Methyl apritone, methyl apritone] | – | – | 66% | 2% | 66% | 28.8% | 7.4% | repelled better than DEET® | 100% | 100% | 100%
